In patent publication US9447015B1, “(S)-2′-vinyl-abscisic acid derivatives” (Valent BioSciences Corporation, priority 2015, dated 2016):
“Also recorded” adds a separate entry of the source.

Assays:
[1] = system: Arabidopsis thaliana seed germination; experiment: Arabidopsis seed germination assay (promotion of germination in the presence of (S)-ABA); assay type: in vivo
Procedure: To determine whether the (S)-ABA derivatives of the present invention were effective antagonists, germination assays were performed with the model plant Arabidopsis thaliana. If the compounds are found to be antagonists, they may be useful to counter any undesirable side effects of (S)-ABA.
Arabidopsis seed was sterilized by shaking for five minutes in 200 proof ethanol, followed by shaking for five minutes in a 10% bleach solution. The seeds were then washed five times in sterile, distilled, de-ionized water and suspended in 0.1% phytoagar. The tubes containing the seeds were wrapped in aluminum foil and stratified at 4° C. for two days.
All compounds were tested at a concentration of 30 ppm in the presence or absence of 0.3 ppm (S)-ABA, in 24-well plates. For each compound, a 1000 ppm stock solution was prepared in distilled, deionized water containing 5% DMSO. The stock test solution (15 μL) was added to each well, plus or minus 1.5 μL of 100 ppm (S)-ABA in 5% DMSO. Appropriate amounts of distilled, de-ionized water was added to equalize volumes, and 450 μL of ½×Murashige and Skoog media containing 1.2% Bactoagar was then added to each well (final DMSO concentration was 0.5%). When the media solidified, ten to 15 sterile stratified Arabidopsis seeds were distributed into each well using a repeat pipettor. The plates were sealed with surgical tape and placed in a growth chamber running diurnal cycles of 12 hours of light at 24° C. and 12 hours of darkness at 19° C. The plates were scanned on days 3 through 14, and scored on day 14. The (S)-2′-vinyl-substituted ABA derivatives were scored on ability to promote germination in the presence of (S)-ABA. The results are summarized below in “Table 1: Arabidopsis seed germination promotion activity of 2′-vinyl-(S)-ABA derivatives.”

[2] = system: grapevines, Seedless 'Red Flame' (bud break and shoot development); experiment: Field study for breaking grape vine dormancy; assay type: in vivo; conditions: for Percent of Buds Broken / Shoot Length/Spur (total length of all shoots present on spur): 1% solution applied to dormant grape spurs
Procedure: A small plot field study to test the effect of experimental compounds on release of, or breaking grape vine dormancy was conducted near Thermal, Calif. in January, 2016. The grapevines, Seedless ‘Red Flame’, had been pruned to 2-4 node spurs (shortened canes) prior to treatment. Aqueous treatment solutions were prepared with a test compound, an appropriate buffering agent, and a silicone-based nonionic surfactant at 0.25% (v/v). Each spur was thoroughly wetted with a 1% (w/v) solution, which was applied with a foam brush. Dormancy breaking was assessed periodically by examining bud break (initiation of growth) and subsequent shoot development. […] Both a control treatment (aqueous solution with surfactant) and a positive control treatment (the commercial standard for bud breaking, hydrogen cyanamide) were included in this study for comparison.

| Compound | Rating: Arabidopsis seed germination promotion activity ([1]; 30 ppm compound in the presence of 0.3 ppm (S)-ABA, scored on day 14) | antagonist nature compared to (S)-ABA ([1]; seed germination assay, 30 ppm with 0.3 ppm (S)-ABA) | Percent of Buds Broken ([2]; 31 days post-treatment) [%] | Percent of Buds Broken ([2]; 48 days post-treatment) [%] | Shoot Length/Spur (total length of all shoots present on spur) ([2]; 48 days post-treatment) [cm] | Shoot Length/Spur (total length of all shoots present on spur) ([2]; 48 days post-treatment, listed as compound 23) | effect on bud break / breaking of woody plant dormancy ([2]; application to dormant grape spurs, 1% solution) |
| --- | --- | --- | --- | --- | --- | --- | --- |
| CC(=C/C(=O)O)/C=C/[C@@]1(O)C(/C=C/c2ccc(F)c(F)c2)=CC(=O)CC1(C)C [Compound 23] | +++ (Seeds germinated 8 to 10 days earlier than those treated with 0.3 ppm of (S)-ABA alone.) | antagonists of (S)-ABA; also recorded: one of the most potent (S)-ABA antagonist | 16.7 | 76.7 | 22.2 | intermediate between the spurs treated with the control and hydrogen cyanamide | significantly increased bud break |
| N#CN [Hydrogen cyanamide, hydrogen cyanamide, reference compound] |  |  | 21.0 | 58.8 | 25.2 |  |  |
